Each structure is given as a SMILES string.

The target of this test is T1, KRAS (G12D)-HiBit in AsPc-1-KRAS (G12D)-HiBit-KI cell (Homo sapiens, UniProt P01116, G12D).
T1 construct: host or cells: AsPc-1-KRAS (G12D)-HiBit-KI cells (knock-in line)
T1 sequence (P01116 1-188 isoform P01116-2 G12D): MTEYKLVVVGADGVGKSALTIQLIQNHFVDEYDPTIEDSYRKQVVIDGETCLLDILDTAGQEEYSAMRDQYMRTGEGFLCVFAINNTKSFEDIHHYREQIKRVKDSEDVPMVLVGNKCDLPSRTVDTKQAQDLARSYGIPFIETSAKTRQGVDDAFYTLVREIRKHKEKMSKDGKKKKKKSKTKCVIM
Put plainly: G12D HiBit assay. The conditions noted are these: 24 hours compound treatment, absolute DC50, read-out: Average PHA DC50. The class given is cell-based. The essentials: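 AsPc-1 cells with HiBiT knocked into KRAS G12D, seeded at 5×10^3/well and held overnight, then treated 24 h with 10-point 3-fold dilutions (300 nM to 0.015 nM). Lytic Nano-Glo HiBiT luminescence expressed as % of 0.1% DMSO control; absolute DC50 from curve fit.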
As for `C#Cc1c(F)ccc2cccc(-c3ncc4c(N5CC6CCC(C5)N6)nc(OC[C@@]56CCCN5[C@H](COC(=O)N5CCO[C@@H](CN7CCN(c8cccc9c8n(C)c(=O)n9C8CCC(=O)NC8=O)CC7)C5)CC6)nc4c3F)c12` (stereo partly drawn) [Compound 111, [(3S,8S)-8-[[4-(3,8-Diazabicyclo[3.2.1]octan-3-yl)-7-(8-ethynyl-7-fluoro-1-naphthyl)-8-fluoro-pyrido[4,3-d]pyrimidin-2-yl]oxymethyl]-1,2,3,5,6,7-hexahydropyrrolizin-3-yl]methyl (2S)-2-[[4-[1-(2,6-dioxo-3-piperidyl)-3-methyl-2-oxo-benzimidazol-4-yl]piperazin-1-yl]methyl]morpholine-4-carboxylate-2,6-dione], the DC50 was below 100 nM. Regarding `C#Cc1c(F)ccc2cccc(-c3ncc4c(N5CC6CCC(C5)N6)nc(OC[C@@]56CCCN5[C@H](COC(=O)N5CCC(CN7CCN(c8cccc9c8n(C)c(=O)n9C8CCC(=O)NC8=O)CC7)CC5)CC6)nc4c3F)c12` (stereo partly drawn) [Compound 112, [(3S,8S)-8-[[4-(3,8-Diazabicyclo[3.2.1]octan-3-yl)-7-(8-ethynyl-7-fluoro-1-naphthyl)-8-fluoro-pyrido[4,3-d]pyrimidin-2-yl]oxymethyl]-1,2,3,5,6,7-hexahydropyrrolizin-3-yl]methyl 4-[[4-[1-(2,6-dioxo-3-piperidyl)-3-methyl-2-oxo-benzimidazol-4-yl]piperazin-1-yl]methyl]piperidine-1-carboxylate], the DC50 was below 100 nM. As to `C#Cc1c(F)ccc2cccc(-c3ncc4c(N5CC6CCC(C5)N6)nc(OC[C@@]56CCCN5[C@H](COC(=O)N5CC(CN7CCN(c8cccc9c8n(C)c(=O)n9C8CCC(=O)NC8=O)CC7)C5)CC6)nc4c3F)c12` (stereo partly drawn) [Compound 113, [(3S,8S)-8-[[4-(3,8-Diazabicyclo[3.2.1]octan-3-yl)-7-(8-ethynyl-7-fluoro-1-naphthyl)-8-fluoro-pyrido[4,3-d]pyrimidin-2-yl]oxymethyl]-1,2,3,5,6,7-hexahydropyrrolizin-3-yl]methyl 3-[[4-[1-(2,6-dioxo-3-piperidyl)-3-methyl-2-oxo-benzimidazol-4-yl]piperazin-1-yl]methyl]azetidine-1-carboxylate], the DC50 lay in the range of 100 to 300 nM. With `C#Cc1c(F)ccc2cccc(-c3ncc4c(N5CC6CCC(C5)N6)nc(OC[C@@]56CCCN5[C@H](COC(=O)N5CCC(OCCCC#Cc7ccc8c(c7)n(C)c(=O)n8C7CCC(=O)NC7=O)CC5)CC6)nc4c3F)c12` (stereo partly drawn) [Compound 114, [(3S,8S)-8-[[4-(3,8-Diazabicyclo[3.2.1]octan-3-yl)-7-(8-ethynyl-7-fluoro-1-naphthyl)-8-fluoro-pyrido[4,3-d]pyrimidin-2-yl]oxymethyl]-1,2,3,5,6,7-hexahydropyrrolizin-3-yl]methyl 4-[5-[1-(2,6-dioxo-3-piperidyl)-3-methyl-2-oxo-benzimidazol-5-yl]pent-4-ynoxy]piperidine-1-carboxylate] the figure was below 100 nM; with `C#Cc1c(F)ccc2cccc(-c3ncc4c(N5CC6CCC(C5)N6)nc(OC[C@@]56CCCN5[C@H](COC(=O)N5CCC(OCc7ccc8c(c7)n(C)c(=O)n8C7CCC(=O)NC7=O)CC5)CC6)nc4c3F)c12` (stereo partly drawn) [Compound 116, [(3S,8S)-8-[[4-(3,8-Diazabicyclo[3.2.1]octan-3-yl)-7-(8-ethynyl-7-fluoro-1-naphthyl)-8-fluoro-pyrido[4,3-d]pyrimidin-2-yl]oxymethyl]-1,2,3,5,6,7-hexahydropyrrolizin-3-yl]methyl4-[[1-(2,6-dioxo-3-piperidyl)-3-methyl-2-oxo-benzimidazol-5-yl]methoxy]piperidine-1-carboxylate], at least 300 nM.

The record behind these values is US12404285B2, “KRAS G12D proteolysis targeting chimeras” (PAQ Therapeutics Inc., priority 2022, dated 2025).
